Experimental findings from patent publication US12227494B2, “Polymorphisms of HM30181 mesylate” (ATHENEX R&D, LLC, priority 2020, dated 2025) are described below.

Holding throughout (format): physicochemical
Series [1] is described as follows: Dynamic Vapor Sorption (DVS) with XRPD post-DVS. Conditions: for Hygroscopicity by DVS (in words) / Water absorbed by DVS: 0-95% RH. The procedure: (§1) XRPD was performed using a Panalytical X'Pert3™ Powder XRPD and on a Si zero-background holder. The 2θ position was calibrated against a Panalytical™ 640 Si powder standard. Details of XRPD used in the experiments are listed below in Table 20.
Dynamic Vapor Sorption (DVS) was measured using a SMS (Surface Measurement Systems™) DVS Intrinsic. Parameters for DVS test are listed below in Table 24.

The nature of series [2]: Cyclic DSC heating followed by XRPD / 1H-NMR (thermal stability of solid form). As to the method:
Based on ^1H-NMR data, decomposition of Type A initiated after heating to 200° C. (see FIG. 14).
as §1
In some studies, a cyclic DSC method was used. In such cycling DSC methods temperature was ramped from ambient to 150° C. at a heating rate of 10° C./min using N2 as the purge gas, then cooled by 10° C. to 25° C. This temperature cycle repeated twice (see Table 22).
(§2) Proton NMR were obtained using a Varian 200M™ NMR in deuterated DMSO (DMSO-d6).

Series [3] is described as follows: XRPD of polymorphs after air-drying or vacuum-drying (solid form stability). The procedure:
Large scale studies were performed with HM30181 mesylate Type A starting material on a 200 mg scale as described below. Solids were isolated by vacuum filtration. The wet cakes from filtration from DMA, DMF, and NMP slurries were washed with 1 mL to 2 mL methanol to remove solvents. […]
as §1

Series [4] in a line: 1H-NMR check for disproportionation or degradation. Conditions: slurry in DMF at 150° C., 5 days.
Excerpt: At large scale, a slurry of HM30181 mesylate Type A starting material in methanol at ambient conditions generated a mixture of HM30181 mesylate Type B and HM30181 mesylate Type A after 9 days (see FIG. 32). After 14 days, the slurry in methanol generated a HM30181 mesylate Type N polymorph. […] A scaled-up slurry of HM30181 mesylate Type A starting material in DMA yielded HM30181 mesylate Type E after 6 days (see FIG. 35). […] A scaled-up slurry of HM30181 mesylate Type A starting material in DMF at 50° C. yielded HM30181 mesylate Type F rather than the expected HM30181 mesylate Type G after 9 days (see FIG. 36). […] This slurry was heated in an attempt to generate HM30181 mesylate Type G. A scaled-up slurry of HM30181 mesylate Type A starting material in DMF at 100° C. yielded HM30181 mesylate Type F after 2 days (see FIG. 37). A scaled-up slurry of HM30181 mesylate Type A starting material in DMF at 150° C. yielded a previously unobserved XRPD pattern after 5 days (see FIG. 37).
By 1H-NMR, HM30181 mesylate Type E contained DMA, HM30181 mesylate Type F contains DMF, and HM30181 mesylate Type N contains MeOH.
as §2

As for `COc1cc2c(cc1OC)CN(CCc1ccc(-n3nnc(-c4cc(OC)c(OC)cc4NC(=O)c4cc(=O)c5ccccc5o4)n3)cc1)CC2.CS(=O)(=O)O` [HM30181 mesylate Type A, HM30181 mesylate], the “Hygroscopicity by DVS (in words)” value in series [1] is “hygroscopic”; in series [1] (listed as Type A), “Monohydrate (hygroscopic”. Further, the “Water absorbed by DVS” value in series [1] was 2.26%; in series [1] (listed as Type A), “to 2.26% at 95% RH)”. In addition, the “XRPD pattern post-DVS” value in series [1] (after DVS 0-95% RH) is given as “no change in XRPD pattern observed”. Moreover, the “Heating temperature after which decomposition initiated (1H-NMR)” value in series [2] (1H-NMR of heated sample) was found to be 200 °C. Besides, the figures for the “XRPD after cyclic DSC” value in series [2] (heated to 110° C.), in series [2] (heated to 185° C.) and in series [2] (heated to 200° C.) were “no XRPD change”, “reduced crystallinity” and “amorphous material”, respectively. The “XRPD (air-dry)” value in series [3] (air-dried solids from Crash cooling 50° C.-->−20° C., ACN 10 mL, Exp. 6007235-17-C12) is “Type C”; in series [3] (air-dried solids from Slow Cooling 50° C.-->4° C., ACN 10 mL, Exp. 6007235-17-C4), “Type C”; in series [3] (air-dried solids from Slow Cooling 50° C.-->4° C., DCM 10 mL, Exp. 6007235-17-C5), “Type C”. Besides, in series [4], the “Chemical stability in DMF slurry by 1H-NMR” value is reported as “resulted in degradation”.
